Data on two compounds can be found in patent publication US20250152584A1, “NLRP3 INFLAMMASOME INHIBITOR AND USES THEREOF” (TransThera Sciences (Nanjing), Inc., priority 2022, published 2025).

Where two headings read alike, the source gives them in different places.

Data set [1] has as its target T1, hERG potassium ion channel (Homo sapiens, UniProt Q12809).
T1 construct: expressed in transfected cells
The data set can be described thus: Inhibition of hERG potassium ion channels, manual patch-clamp in HEK-293 cells. The class given is cell-based. The following applies: HEK-293 cells stably expressing hERG, whole-cell manual patch-clamp, room temperature. As to the method: Experimental Example 5: Test for Inhibition of hERG Potassium Ion Channels by Compound
Experimental Objective: To study the inhibitory effect of the compound on hERG potassium ion channels by a manual patch-clamp technique. […]
• 2.1 Blank control: DMSO stock. • 2.2 Positive control: 10 mM stock formulated from a appropriate amount of Cisapride and dimethyl sulfoxide (DMSO). The stock was aliquoted and stored at −20° C. • 2.3 Compound: An appropriate amount of compound was weighed; the volume of DMSO required was calculated according to the formula: DMSO volume=actual amount×purity (content)/(molecular weight×theoretical concentration), and the corresponding volume of DMSO was pipetted; then, the weighed compound was dissolved with the pipetted DMSO, and the mass of DMSO was measured at the same time; and finally, the actual stock concentration was calculated according to the final amount of DMSO used. […]

Data set [2] can be described thus: Pharmacokinetic study in beagles. The class given is in vivo. As to conditions: beagle, dog, plasma, male beagles. How it is done: Experimental Example 4: Pharmacokinetic Study of Compounds in Beagles
Compound 174 was prepared into a solution with a mixed solvent formulated from 5% dimethyl sulfoxide, 20% (30% solutol) and 75% normal saline; the solution of this compound was administered to male beagles by gavage at a dose of 1.0 mg/kg; and the time points for blood collection were: 15 min, 30 min, 1 b, 2 h, 4 h, 6 b, 8 h, 10 h and 24 h. The solution of the compound was administered to male beagles by intravenous bolus at a dose of 1.0 mg/kg, and the time points for blood collection were as follows: 5 min, 15 min, 30 min, 1 h, 2 h, 4 h, 6 h, 8 h, 10 h, and 24 h.
Compound 177 and Compound 195 were prepared into solutions with a mixed solvent formulated from 5% dimethyl sulfoxide, 20% (30% solutol) and 75% normal saline, respectively; the solutions of these compounds were administered to male beagles by gavage at a dose of 1.0 mg/kg; and the time points for blood collection were: 15 min, 30 min, 1 h, 2 h, 4 h, 6 h, 8 h, 10 h and 24 h. The solution of the compound was administered to male beagles by intravenous bolus at a dose of 1.0 mg/kg, and the time points for blood collection were as follows: 5 min, 15 min, 30 min, 1 h, 2 h, 4 h, 6 h, 8 h, 10 h, and 24 h.
Approximately 400 μL of blood was collected through the medial cephalic vein of the forelimb and placed in an anticoagulant tube containing EDTA-K2. Blood samples were centrifuged at 12,000 rpm for 10 min at 4° C. to obtain plasma samples, and plasma was prepared within 30 min after blood collection. The plasma was stored in a −80° C. freezer before testing.

T1 sequence (Q12809 whole entry): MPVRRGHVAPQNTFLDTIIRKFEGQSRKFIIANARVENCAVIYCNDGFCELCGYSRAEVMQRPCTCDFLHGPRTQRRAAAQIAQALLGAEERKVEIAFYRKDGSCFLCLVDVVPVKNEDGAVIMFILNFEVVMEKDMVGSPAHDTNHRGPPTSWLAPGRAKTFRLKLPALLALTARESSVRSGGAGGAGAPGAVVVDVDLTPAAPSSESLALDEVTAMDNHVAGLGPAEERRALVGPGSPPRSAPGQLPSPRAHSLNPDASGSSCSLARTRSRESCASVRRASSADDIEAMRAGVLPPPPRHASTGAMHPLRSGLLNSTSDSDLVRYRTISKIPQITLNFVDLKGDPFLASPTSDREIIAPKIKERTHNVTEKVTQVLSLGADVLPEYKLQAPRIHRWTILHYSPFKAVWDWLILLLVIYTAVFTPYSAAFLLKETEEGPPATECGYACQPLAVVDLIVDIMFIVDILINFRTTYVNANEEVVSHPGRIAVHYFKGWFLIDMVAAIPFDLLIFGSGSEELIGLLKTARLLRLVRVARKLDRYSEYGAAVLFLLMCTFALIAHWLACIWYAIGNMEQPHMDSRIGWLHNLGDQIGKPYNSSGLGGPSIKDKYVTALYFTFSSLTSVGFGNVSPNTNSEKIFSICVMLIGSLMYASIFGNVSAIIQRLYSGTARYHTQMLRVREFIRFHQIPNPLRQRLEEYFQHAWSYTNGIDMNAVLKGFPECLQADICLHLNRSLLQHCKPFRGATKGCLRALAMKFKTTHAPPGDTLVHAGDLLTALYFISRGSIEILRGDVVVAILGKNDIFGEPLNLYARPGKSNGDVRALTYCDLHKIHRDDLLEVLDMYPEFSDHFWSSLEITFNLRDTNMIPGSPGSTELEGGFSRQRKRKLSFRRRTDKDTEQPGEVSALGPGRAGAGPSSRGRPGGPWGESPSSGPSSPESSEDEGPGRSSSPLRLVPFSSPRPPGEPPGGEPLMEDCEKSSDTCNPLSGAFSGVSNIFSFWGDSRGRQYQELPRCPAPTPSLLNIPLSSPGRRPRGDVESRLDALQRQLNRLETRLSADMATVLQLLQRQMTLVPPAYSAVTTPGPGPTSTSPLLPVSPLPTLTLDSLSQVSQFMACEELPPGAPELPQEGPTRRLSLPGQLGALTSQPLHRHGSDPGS

Usually IC50 stands for the point on the concentration scale where inhibition reaches its midpoint. A low value points to greater potency in that assay. `C#Cc1ccc(-c2nnc(N[C@@H]3CCCN(C)C3)cc2C)c(O)c1` [Compound 54, (R)-5-ethynyl-2-(4-methyl-6-((1-methylpiperidin-3-yl)amino)pyridazin-3-yl)phenol] displayed an IC50 in data set [1] of more than 10 µM.

What is called clearance is the rate of elimination divided by the concentration. Usually bioavailability stands for the share of a dose that reaches the circulation, judged against a reference dose that is usually intravenous. Consider `CC#Cc1ccc(-c2nnc(N[C@@H]3CCCN(C)C3)cc2C)c(O)c1` [Compound 174, (R)-2-(4-methyl-6-((1-methylpiperidin-3-yl)amino)pyridazin-3-yl)-5-(prop-1-yn-1-yl)phenol], for which the AUC(0-t) in data set [2] (po, gavage 1.0 mg/kg, read-out: AUClast po (area under the drug-time curve for 0-24 h)) is 1660 ng·h/mL; in data set [2] (intravenous bolus 1.0 mg/kg, read-out: AUClast iv (area under the drug-time curve for 0-24 h)), 1980 ng·h/mL. Also, the Cmax in data set [2] (po, gavage 1.0 mg/kg, read-out: Cmax po (peak concentration)) stood at 105 ng/mL. The Tmax in data set [2] (po, gavage 1.0 mg/kg, read-out: Tmax po (peak time of plasma concentration)) came to 4 h. Also, the half-life in data set [2] (po, gavage 1.0 mg/kg, read-out: tz1/2 po (terminal elimination half-life) (converted)) is 14.7 h; in data set [2] (intravenous bolus 1.0 mg/kg, read-out: tz1/2 iv (terminal elimination half-life) (converted)) it was 15.8 h. Besides, the clearance in data set [2] (intravenous bolus 1.0 mg/kg, read-out: Cl—obs iv (clearance rate) (converted)) is 5.53 mL/min/kg. The Vd in data set [2] (intravenous bolus 1.0 mg/kg, read-out: Vss iv (volume of distribution)) was determined as 7.39 L/kg. Besides, the bioavailability in data set [2] (iv 1.0 mg/kg / po 1.0 mg/kg, read-out: F % (absolute bioavailability)) was 83.8%.
